These results are taken from patent publication US20260262643A1, “HERBICIDAL BENZOXAZINES” (FMC CORPORATION, priority 2022, published 2026).

The subject of assay [1] is barnyardgrass. The assay can be described thus: Test C preemergence. The class given is in vivo, Echinochloa crusgalli. To be noted: Preemergence, 1000 g ai/ha; visual rating after 10 days, 0 to 100 scale (0 no effect, 100 complete control). An outline of the steps:
(§1)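 Greenhouse herbicide screen, 10-day duration. Test chemicals in solvent/surfactant blend were sprayed onto soil at sowing (pre) or onto 2–10 cm seedlings at one to two leaves (post); injury scored visually against controls, 0 no effect to 100 complete control.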

For assay [2], the system named is foxtail, giant. The assay can be described thus: Test C preemergence. The class given is in vivo, Setaria faberi. To be noted: Preemergence, 1000 g ai/ha; visual rating after 10 days, 0 to 100 scale (0 no effect, 100 complete control). An outline of the steps: as §1
Assay [3] relates to kochia. The assay can be described thus: Test C preemergence. The class given is in vivo, Bassia scoparia. To be noted: Preemergence, 1000 g ai/ha; visual rating after 10 days, 0 to 100 scale (0 no effect, 100 complete control). The gist of the method:
as §1

Assay [4] relates to Pigweed, Redroot. The assay can be described thus: Test C preemergence. The class given is in vivo, Amaranthus retroflexus. The settings on record: 1000 g ai/ha, visual rating after 10 days, 0 to 100 scale (0 no effect, 100 complete control). An excerpt:
(§2) Seeds of plant species selected from barnyardgrass (Echinochloa crusgalli), blackgrass (Alopecurus myosuroides), corn (Zea mays), foxtail, giant (giant foxtail, Setaria faberi), green foxtail (Setaria viridis), goosegrass (Eleusine indica), kochia (Bassia scoparia), oat, wild (wild oat, Avena fatua), pigweed, palmer (palmer amaranth, palmer pigweed, Amaranthus palmeri), Pigweed, Redroot (redroot pigweed, Amaranthus retroflexus), ragweed (common ragweed, Ambrosia artemisiifolia), ryegrass, Italian ([…] ryegrass, Lolium multiflorum), soybean (Glycine max), and wheat (Triticum aestivum) were planted into a blend of loam soil and sand and treated preemergence with a directed soil spray using test chemicals formulated in a non-phytotoxic solvent mixture which included a surfactant. At the same time, plants selected from these crops and weed species and also galium (catchweed bedstraw, Galium aparine) and horseweed (Erigeron canadensis) were planted in pots containing the same blend of loam soil and sand and treated with postemergence applications of test chemicals formulated in the same manner. Plants ranged in height from 2 to 10 cm and were in the one- to two-leaf stage for the postemergence treatment. Treated plants and untreated controls were maintained in a greenhouse for 10 days, after which time all treated plants were compared to untreated controls and visually evaluated for injury. Plant response ratings, summarized in Table C, are based on a 0 to 100 scale where 0 is no effect and 100 is complete control. A dash (-) response means no test result.

For assay [5], the system named is ragweed. The assay can be described thus: Test C preemergence. The class given is in vivo, Ambrosia artemisiifolia. To be noted: Preemergence, 1000 g ai/ha; visual rating after 10 days, 0 to 100 scale (0 no effect, 100 complete control). An outline of the steps: as §1
The test system of assay [6] is ryegrass, Italian. Description: Test C preemergence. The class given is in vivo, Lolium multiflorum. The settings on record: Preemergence, 1000 g ai/ha; visual rating after 10 days, 0 to 100 scale (0 no effect, 100 complete control). An outline of the steps: as §1
The test system of assay [7] is barnyardgrass. Description: Test C postemergence. The settings on record: Postemergence, 1000 g ai/ha. The class given is in vivo, Echinochloa crusgalli. An outline of the steps:
as §1

A further assay deals with blackgrass. The assay can be described thus: Test C postemergence. The class given is in vivo, Alopecurus myosuroides. To be noted: Postemergence, 1000 g ai/ha. An outline of the steps: as §1
A further assay has as its system corn. The assay can be described thus: Test C postemergence. To be noted: Postemergence, 1000 g ai/ha. The class given is in vivo, Zea mays. The gist of the method: as §1
The subject of assay [8] is foxtail, giant. The assay can be described thus: Test C postemergence. The class given is in vivo, Setaria faberi. The settings on record: Postemergence, 1000 g ai/ha. An outline of the steps:
as §1

Assay [9] has as its system kochia. Description: Test C postemergence. The class given is in vivo, Bassia scoparia. To be noted: Postemergence, 1000 g ai/ha. The gist of the method: as §1
Assay [10] has as its system Pigweed, Redroot. The assay can be described thus: Test C postemergence. The settings on record: 1000 g ai/ha. The class given is in vivo, Amaranthus retroflexus.
From the text: as §2

Assay [11] relates to ragweed. The assay can be described thus: Test C postemergence. The settings on record: Postemergence, 1000 g ai/ha. The class given is in vivo, Ambrosia artemisiifolia. An outline of the steps:
as §1

Assay [12] relates to ryegrass, Italian. Description: Test C postemergence. The class given is in vivo, Lolium multiflorum. The settings on record: Postemergence, 1000 g ai/ha. The gist of the method: as §1
The subject of the next assay is wheat. Description: Test C postemergence. The class given is in vivo, Triticum aestivum. The settings on record: Postemergence, 1000 g ai/ha. The gist of the method: as §1
Another assay relates to galium. Description: Test C postemergence. The class given is in vivo, Galium aparine. The settings on record: Postemergence, 1000 g ai/ha. An outline of the steps: as §1
Where [13] appears, read: 0 to 100 scale, 0 no effect, 100 complete control.
The mark [14] stands for this setting: 10 days, visual 0 to 100 scale (0 no effect, 100 complete control).

On to `CC1(C)CN(C(=O)c2ccnc(-n3cncn3)c2)c2ccccc2O1` [Compound 202], for which the “Plant response rating, Barnyardgrass” value with barnyardgrass [1] and with barnyardgrass [7] (setting [13]) was 0 each time. The “Plant response rating, Foxtail, Giant” value in the assay on foxtail, giant [2] is listed as 0; with foxtail, giant [8] (setting [13]), 0. Besides, the “Plant response rating, Kochia” value in the assay on kochia [3] and in the assay with kochia [9] (setting [13]) was 0 throughout. Moreover, the “Plant response rating, Pigweed, Redroot” value with Pigweed, Redroot [4] is 0; in the assay on Pigweed, Redroot [10] (setting [13]), 0. For the same molecule, the “Plant response rating, Ragweed” value with ragweed [5] and with ragweed [11] (setting [13]) was 0 in each case. Moreover, the “Plant response rating, Ryegrass, Italian” value in the assay on ryegrass, Italian [6] amounted to 0; in the assay with ryegrass, Italian [12] (setting [13]), 0. In addition, in the assay on blackgrass (Alopecurus myosuroides, post-emergence, 240 h, 0 to 100 scale, 0 no effect, 100 complete control, read-out: Plant response rating, Blackgrass), the pest or weed control at 1000 g/ha turned out to be 0%. Moreover, in the assay with corn (Zea mays, post-emergence, 240 h, 0 to 100 scale, 0 no effect, 100 complete control), the Corn plant response rating (crop injury, 0 = no effect, 100 = complete kill) at 1000 g/ha was found to be 0%. In addition, the “Plant response rating, Wheat” value with wheat (setting [13]) was found to be 30. In addition, the “Plant response rating, Galium” value in the assay on galium (setting [13]) was determined as 0.

Consider `CC1CN(C(=O)c2ccnc(-n3ccnc3)c2)c2cccc(Cl)c2O1` (centres unmarked) [Compound 197], for which the “Plant response rating, Barnyardgrass” value with barnyardgrass [1] and with barnyardgrass [7] (setting [13]) was 0 in each case. Also, the “Plant response rating, Foxtail, Giant” value with foxtail, giant [2] stood at 30; in the assay with foxtail, giant [8] (setting [13]) it was 0. For the same molecule, the “Plant response rating, Kochia” value is on record as 0 with kochia [3] and 10 in the assay on kochia [9] (setting [13]). Besides, the “Plant response rating, Pigweed, Redroot” value in the assay with Pigweed, Redroot [4] is on record as 30; with Pigweed, Redroot [10] (setting [13]), 50. Moreover, the “Plant response rating, Ragweed” value with ragweed [5] and in the assay with ragweed [11] (setting [13]) was 0 in each case. Moreover, the “Plant response rating, Ryegrass, Italian” value is 0 with ryegrass, Italian [6] and 0 in the assay with ryegrass, Italian [12] (setting [13]). Further, the “Plant response rating, Blackgrass” value in the assay on blackgrass (setting [13]) came to 0. Further, in the assay on corn (setting [13]), the “Plant response rating, Corn” value is 0. In the assay with wheat (setting [13]), the “Plant response rating, Wheat” value was 0. The “Plant response rating, Galium” value with galium (setting [13]) stood at 30.

On to `C[C@H]1CN(C(=O)c2cccc(-c3ccncn3)c2)c2cccc(Cl)c2O1` [Compound 287], for which the figures for the “Plant response rating, Barnyardgrass” value in the assay with barnyardgrass [1] and in the assay on barnyardgrass [7] (setting [14]) were 60 and 20, respectively. Moreover, the “Plant response rating, Foxtail, Giant” value in the assay with foxtail, giant [2] was found to be 0; in the assay on foxtail, giant [8] (setting [14]), 10. Besides, the results for the “Plant response rating, Kochia” value with kochia [3] and in the assay with kochia [9] (setting [14]) were 30 and 10, respectively. Further, the “Plant response rating, Pigweed, Redroot” value was found to be 0 with Pigweed, Redroot [4] and 20 in the assay with Pigweed, Redroot [10] (setting [14]). For the same molecule, the “Plant response rating, Ragweed” value with ragweed [5] and with ragweed [11] (setting [14]) was 0 throughout. For the same molecule, the “Plant response rating, Ryegrass, Italian” value with ryegrass, Italian [6] worked out at 20; in the assay with ryegrass, Italian [12] (setting [14]), 0. The “Plant response rating, Blackgrass” value with blackgrass (setting [14]) was 0. Besides, in the assay with corn (setting [14]), the “Plant response rating, Corn” value came to 0. Further, the “Plant response rating, Wheat” value in the assay on wheat (setting [14]) is given as 0. Besides, the “Plant response rating, Galium” value in the assay on galium (setting [14]) is listed as 20.

On to `CC1CN(C(=O)c2ccnc(-c3ccccn3)c2)c2cccc(Cl)c2O1` (centres unmarked) [Compound 198], for which the “Plant response rating, Barnyardgrass” value with barnyardgrass [1] was found to be 10; with barnyardgrass [7] (setting [13]) it was 20. Also, the “Plant response rating, Foxtail, Giant” value in the assay on foxtail, giant [2] is given as 0; with foxtail, giant [8] (setting [13]) it was 0. Further, the “Plant response rating, Kochia” value in the assay on kochia [3] and in the assay on kochia [9] (setting [13]) was 0 throughout. For the same molecule, the “Plant response rating, Pigweed, Redroot” value came out at 0 in the assay with Pigweed, Redroot [4] and 0 in the assay with Pigweed, Redroot [10] (setting [13]). Further, the “Plant response rating, Ragweed” value in the assay with ragweed [5] and in the assay with ragweed [11] (setting [13]) was 0 in each case. In addition, the “Plant response rating, Ryegrass, Italian” value is given as 0 in the assay with ryegrass, Italian [6] and 0 in the assay on ryegrass, Italian [12] (setting [13]). Further, the “Plant response rating, Blackgrass” value with blackgrass (setting [13]) stood at 0. The “Plant response rating, Corn” value with corn (setting [13]) was 0. Moreover, the “Plant response rating, Wheat” value in the assay on wheat (setting [13]) came to 20. Besides, the “Plant response rating, Galium” value in the assay with galium (setting [13]) stood at 0.

In the case of `C[C@H]1CN(C(=O)c2cccc(-n3ccnn3)c2)c2cccc(Cl)c2O1` [Compound 199], the entries for the “Plant response rating, Barnyardgrass” value in the assay with barnyardgrass [1] and in the assay on barnyardgrass [7] (setting [13]) were 0 and 30, respectively. Further, the “Plant response rating, Foxtail, Giant” value is listed as 50 in the assay with foxtail, giant [2] and 20 in the assay with foxtail, giant [8] (setting [13]). For the same molecule, the “Plant response rating, Kochia” value in the assay on kochia [3] is 0; in the assay on kochia [9] (setting [13]), 10. For the same molecule, the “Plant response rating, Pigweed, Redroot” value was 20 in the assay with Pigweed, Redroot [4] and 40 with Pigweed, Redroot [10] (setting [13]). Also, the “Plant response rating, Ragweed” value with ragweed [5] and with ragweed [11] (setting [13]) was 0 each time. In addition, the “Plant response rating, Ryegrass, Italian” value turned out to be 30 with ryegrass, Italian [6] and 40 with ryegrass, Italian [12] (setting [13]). For the same molecule, the “Plant response rating, Blackgrass” value in the assay on blackgrass (setting [13]) amounted to 20. In addition, the “Plant response rating, Corn” value with corn (setting [13]) is given as 10. In addition, in the assay on wheat (setting [13]), the “Plant response rating, Wheat” value stood at 0. In addition, the “Plant response rating, Galium” value with galium (setting [13]) came out at 20.
